Source: US7182954B1, “Prebiotic oligosaccharides via alternansucrase acceptor reactions” (priority 2003, dated 2007)

Experiments:
[1] = test system: Escherchia coli 8739; assay: Oligosaccharide utilization (growth) by colonic bacteria; format: cell-based, Escherichia coli; details: 0.5% oligosaccharide preparation, anaerobic, 5 days, 37° C
[2] = test system: Lactobacillus acidophilus 4356; assay: as above; format: cell-based; details: 0.5% oligosaccharide preparation, anaerobic, 5 days, 37° C
[3] = test system: Bifidobacterium bifidum 29521; assay: as above; format: cell-based; details: 0.5% oligosaccharide preparation, anaerobic, 5 days, 37° C
[4] = test system: Bifidobacterium adolescentis 15705; assay: as above; format: cell-based; details: 0.5% oligosaccharide preparation, anaerobic, 5 days, 37° C
[5] = test system: Bifidobacterium boum 27917; assay: as above; format: cell-based; details: 0.5% oligosaccharide preparation, anaerobic, 5 days, 37° C
[6] = test system: alternansucrase; assay: Comparison of acceptor strengths with alternansucrase, relative amount of alternan formed; details: 45 μL 10% (w/v) sucrose, 45 μL 10% (w/v) acceptor, 10 μL alternansucrase, pH 5.4, room temperature; less alternan = stronger acceptor
[7] = test system: Bifidobacterium adolescentis 15704; assay: Oligosaccharide utilization (growth) by colonic bacteria; format: cell-based; details: 0.5% oligosaccharide preparation, anaerobic, 5 days, 37° C
[8] = test system: Salmonella typhimurium 14028; assay: as above; format: cell-based, Salmonella choleraesuis (typhimurium); details: 0.5% oligosaccharide preparation, anaerobic, 5 days, 37° C
[9] = test system: Bifidobacterium ruminantium 4939; assay: as above; format: cell-based; details: 0.5% oligosaccharide preparation, anaerobic, 5 days, 37° C
[10] = test system: Bifidobacterium infantis 15697; assay: as above; format: cell-based; details: 0.5% oligosaccharide preparation, anaerobic, 5 days, 37° C
[11] = test system: Bifidobacterium gallicum 49850; assay: as above; format: cell-based; details: 0.5% oligosaccharide preparation, anaerobic, 5 days, 37° C
[12] = test system: Bifidobacterium adolescentis 15706; assay: as above; format: cell-based; details: 0.5% oligosaccharide preparation, anaerobic, 5 days, 37° C
[13] = test system: Bifidobacterium breve 15698; assay: as above; format: cell-based; details: 0.5% oligosaccharide preparation, anaerobic, 5 days, 37° C
[14] = test system: Enterobacter aerogenes 35028; assay: as above; format: cell-based; details: 0.5% oligosaccharide preparation, anaerobic, 5 days, 37° C
[15] = test system: Bifidobacterium longum 15707; assay: as above; format: cell-based; details: 0.5% oligosaccharide preparation, anaerobic, 5 days, 37° C
[16] = test system: Bifidobacterium catenulatum 27539; assay: as above; format: cell-based; details: 0.5% oligosaccharide preparation, anaerobic, 5 days, 37° C
[17] = test system: Bifidobacterium thermophilum 25866; assay: as above; format: cell-based; details: 0.5% oligosaccharide preparation, anaerobic, 5 days, 37° C
[18] = test system: Bifidobacterium adolescentis 15703; assay: as above; format: cell-based; details: 0.5% oligosaccharide preparation, anaerobic, 5 days, 37° C
[19] = test system: Clostridium perfringens 13124; format: cell-based; details: 0.5% oligosaccharide preparation, anaerobic, 5 days, 37° C
[20] = test system: Bacteroides thetaiotaomicron 29148; format: cell-based; details: 0.5% oligosaccharide preparation, anaerobic, 5 days, 37° C
[21] = test system: Bifidobacterium pseudocatenulatum 27919; assay: Oligosaccharide utilization (growth) by colonic bacteria; format: cell-based; details: 0.5% oligosaccharide preparation, anaerobic, 5 days, 37° C
[22] = test system: Lactobacillus GG 53103; assay: as above; format: cell-based, Lactobacillus rhamnosus GG; details: 0.5% oligosaccharide preparation, anaerobic, 5 days, 37° C
[23] = test system: Lactobacillus casei 393; assay: as above; format: cell-based; details: 0.5% oligosaccharide preparation, anaerobic, 5 days, 37° C

For `O=C[C@H](O)[C@@H](O)[C@H](O)[C@H](O)CO` [D-glucose], the “Growth (OD600 nm), Escherchia coli 8739” value [1] was “+++ (OD600 nm ≧ 0.60, high growth)”, the “Growth (OD600 nm), Lactobacillus acidophilus 4356” value [2] was “+++ (OD600 nm ≧ 0.60, high growth)” and the “Growth (OD600 nm), Bifidobacterium bifidum 29521” value [3] was “+++ (OD600 nm ≧ 0.60, high growth)”. The “Growth (OD600 nm), Bifidobacterium adolescentis 15705” value [4] was “+++ (OD600 nm ≧ 0.60, high growth)”, the “Growth (OD600 nm), Bifidobacterium boum 27917” value [5] was “+++ (OD600 nm ≧ 0.60, high growth)” and the “Alternan (Rel. %)” value [6] was 53 Rel. %. For the same molecule, the “Growth (OD600 nm), Bifidobacterium adolescentis 15704” value [7] was “+++ (OD600 nm ≧ 0.60, high growth)”, the “Growth (OD600 nm), Salmonella typhimurium 14028” value [8] was “++ (OD600 nm 0.31–0.59, medium growth)” and the “Growth (OD600 nm), Bifidobacterium ruminantium 4939” value [9] was “+++ (OD600 nm ≧ 0.60, high growth)”. The “Growth (OD600 nm), Bifidobacterium infantis 15697” value [10] was “+++ (OD600 nm ≧ 0.60, high growth)”, the “Growth (OD600 nm), Bifidobacterium gallicum 49850” value [11] was “+++ (OD600 nm ≧ 0.60, high growth)” and the “Growth (OD600 nm), Bifidobacterium adolescentis 15706” value [12] was “+++ (OD600 nm ≧ 0.60, high growth)”. The “Growth (OD600 nm), Bifidobacterium breve 15698” value [13] was “+++ (OD600 nm ≧ 0.60, high growth)”, the “Growth (OD600 nm), Enterobacter aerogenes 35028” value [14] was “+++ (OD600 nm ≧ 0.60, high growth)” and the “Growth (OD600 nm), Bifidobacterium longum 15707” value [15] was “+++ (OD600 nm ≧ 0.60, high growth)”. For the same molecule, the “Growth (OD600 nm), Bifidobacterium catenulatum 27539” value [16] was “+++ (OD600 nm ≧ 0.60, high growth)”, the “Growth (OD600 nm), Bifidobacterium thermophilum 25866” value [17] was “+++ (OD600 nm ≧ 0.60, high growth)” and the “Growth (OD600 nm), Bifidobacterium adolescentis 15703” value [18] was “+++ (OD600 nm ≧ 0.60, high growth)”. For the same molecule, the “Growth (OD600 nm), Clostridium perfringens 13124” value [19] was “+++ (OD600 nm ≧ 0.60, high growth)”, the “Growth (OD600 nm), Bacteroides thetaiotaomicron 29148” value [20] was “++ (OD600 nm 0.31–0.59, medium growth)” and the “Growth (OD600 nm), Bifidobacterium pseudocatenulatum 27919” value [21] was “+++ (OD600 nm ≧ 0.60, high growth)”. For the same molecule, the “Growth (OD600 nm), Lactobacillus GG 53103” value [22] was “+++ (OD600 nm ≧ 0.60, high growth)” and the “Growth (OD600 nm), Lactobacillus casei 393” value [23] was “+++ (OD600 nm ≧ 0.60, high growth)”.
